Data on 39 molecules can be found in patent US20110065739A1, “NOVEL ISOXAZOLE DRIVATIVE” (priority 2008, published 2011).

Counter-ions that a name gives are not always drawn.

The first test deals with T1, human GPR120 (Homo sapiens, UniProt Q5NUL3).
T1 construct: expressed in transfected cells
T1 sequence (Q5NUL3 1-361): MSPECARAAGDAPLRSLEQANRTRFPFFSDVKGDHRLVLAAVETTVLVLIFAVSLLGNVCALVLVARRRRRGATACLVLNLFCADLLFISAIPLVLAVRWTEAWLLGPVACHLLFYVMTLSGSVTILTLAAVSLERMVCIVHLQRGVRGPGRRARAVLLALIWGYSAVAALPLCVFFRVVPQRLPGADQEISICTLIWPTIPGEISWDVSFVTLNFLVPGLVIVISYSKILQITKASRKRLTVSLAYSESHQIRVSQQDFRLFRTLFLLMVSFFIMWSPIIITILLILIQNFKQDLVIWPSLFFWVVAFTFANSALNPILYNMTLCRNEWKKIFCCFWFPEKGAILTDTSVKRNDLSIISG
The test can be described thus: Measurement of intracellular calcium concentration (FLIPR), GPR120 agonist action. As to conditions: 10 μmol/l test compound, human GPR120 expression CHO cells, Fluo-4 AM. The class given is cell-based. As to the method: Using Lipofectamine 2000 (Invitrogen), cDNA of GPR120 receptor was transfected into CHO/NFAT-BLA cells, and drug-resistant cells were isolated to obtain GPR120 stable expression strains. The GPR120-expressed CHO cells were cultured in DMEM/F12 medium containing 10% fetal bovine serum, 100 units/ml penicillin, 0.1 mg/ml streptomycin sulfate, 250 μg/ml Zeocin, 500 μg/mL Geneticin and 15 mM HEPES. On the day before the measurement day, 4 μM Fluo-4 AM (fluorescence calcium indicator reagent) was incubated to be introduced into the human GPR120 expression CHO cells plated at 20000 cells per well of a 96-well black plate (ViewPlate; Packard) in the presence of 2.5 mM probenecid in a CO2 incubator for 1 hour. To the cells was added the test compound diluted with HBSS solution containing 20 mM HEPES and 2.5 mM probenecid. Variations in the intracellular calcium concentration were measured by Fluorescence Imaging Plate Reader (FLIPR; Molecular Devices) to examine the agonist action, and EC50 values were calculated.
In the case of “5-(4-(2-(3-ethylphenyl)-1-methylethoxy)phenyl)isoxazol-3-ol [Example 35]”, the “Agonistic activity at 10 μmol/l (%)” value is reported as 98%. Still for that read-out and setting: to “5-(4-(2-(3-isopropoxyphenyl)propoxy)phenyl)-isoxazol-3-ol [Example 33]” belongs 84%; to “5-(4-(2-(4-methylphenoxy)propyl)phenyl)isoxazol-3-ol [Example 14]”, 101%.

With “5-{4-[(2,2-difluoro-2-{3-[(1-methylethyl)oxy]phenyl}ethyl)oxy]phenyl}isoxazol-3-ol [Example 30]”, the “Agonistic activity at 10 μmol/l (%)” value was determined as 91%. The same measure, in the same setting: to “5-{4-[(2-fluoro-2-{3-[(1-methylethyl)oxy]phenyl}ethyl)oxy]phenyl}isoxazol-3-ol [Example 31]” belongs 93%. With `COc1cccc(C(F)COc2ccc(-c3cc(O)no3)cc2)c1` (stereo not drawn) [Example 2, 5-(4-(2-fluoro-2-(3-methoxyphenyl)ethoxy)phenyl)isoxazol-3-61], the “Agonistic activity at 10 μmol/l (%)” value amounted to 110%. With `CC(C)Oc1cccc(CC(C)Oc2ccc(-c3cc(O)no3)c(F)c2)c1` (stereo not drawn) [Example 6, 5-{2-fluoro-4-[2-(3-isopropoxyphenyl)-1-methylethoxy]phenyl}isoxazol-3-01], the “Agonistic activity at 10 μmol/l (%)” value is on record as 98%.

For `Cc1cccc(OC(C)Cc2ccc(-c3cc(O)no3)cc2)c1` (stereo not drawn) [Example 11, 5-(4-(2-(3-methylphenoxy)propyl)phenyl)isoxazol-3-01], the “Agonistic activity at 10 μmol/l (%)” value is given as 91%. `CC(Cc1ccc(-c2cc(O)no2)cc1)Oc1ccc(Cl)cc1` (stereo not drawn) [Example 16, 5-(4-(2-(4-chlorophenoxy)propyl)phenyl)isoxazol-3-01]: the “Agonistic activity at 10 μmol/l (%)” value was determined as 96%. Same read-out and setting: the value for `CC(Cc1ccc(-c2cc(O)no2)cc1)Oc1ccc(Cl)cc1F` (stereo not drawn) [Example 17, 5-(4-(2-(4-chloro-2-fluorophenoxy)propyl)phenyl)isoxazol-3-01] was 97%; that for `CC(Cc1ccc(-c2cc(O)no2)cc1)Oc1ccc(Cl)cc1Cl` (stereo not drawn) [Example 18, 5-(4-(2-(2,4-dichlorophenoxy)propyl)phenyl)isoxazol-3-01] was 97%.

For the molecule `CC(Cc1ccc(-c2cc(O)no2)cc1)Oc1cccc(OC(F)(F)F)c1` (stereo not drawn) [Example 19], the “Agonistic activity at 10 μmol/l (%)” value is 96%. On the same count and under the same terms, to `CC(C)Oc1cccc(C[C@@H](C)Oc2ccc(-c3cc(O)no3)cc2)c1` [Example 20] belongs 94%. The same measure, in the same setting: the value for `C[C@H](Cc1cccc(OC2CC2)c1)Oc1ccc(-c2cc(O)no2)cc1` [Example 22, 5-[4-({(1R)-1-methyl-2-[3-(cyclopropyloxy)phenyl]-1-methylethyl]oxy)phenyl}isoxazol-3-ol] was 93%; that for `CC(C)Oc1cccc(C[C@@H](C)Oc2ncc(-c3cc(O)no3)cn2)c1` [Example 32, 5-{2-[((1R)-1-methyl-2-{3-[(1-methylethyl)oxy]phenyl}ethyl)oxy]pyrimidin-5-yl}isoxazol-3-01] was 91%; that for `CC(C)Oc1ccccc1C(C)COc1ccc(-c2cc(O)no2)c(F)c1` (stereo not drawn) [Example 39] was 90%.

Staying with this test, now noted: 10 μmol/l test compound, human GPR120 expression CHO cells, Fluo-4 AM, read-out: Agonistic activity at 10 μmol/l (%).
Take `CC(C)Oc1cccc(CC(C)Oc2ccc(-c3cc(O)no3)cc2)c1` (stereo not drawn) [Example 1, 5-(4-(2-(3-isopropoxyphenyl)-1-methylethoxy)phenyl)isoxazol-3-ol]: the activation at 10 µM came to 104%. Same read-out and setting: the value for `COc1cccc(C(F)(F)COc2ccc(-c3cc(O)no3)cc2)c1` [Example 3, 5-(4-(2,2-difluoro-2-(3-methoxyphenyl)ethoxy)phenyl)isoxazol-3-ol] was 105%; that for `CC(C)Oc1cccc(C(C)COc2ccc(-c3cc(O)no3)cc2)c1` (stereo not drawn) [Example 4, 5-(4-(2-(3-isopropoxyphenyl)propoxy)phenyl)-isoxazol-3-ol] was 98%. Still for that read-out and setting: the value for `CC(C)Oc1cccc(C(C)(C)COc2ccc(-c3cc(O)no3)cc2)c1` [Example 5, 5-(4-(2-methyl-2-(3-isopropoxyphenyl)propoxy)phenyl)-isoxazol-3-ol] was 94%; that for `CC(C)Oc1cccc(CC(C)Oc2ccc(-c3cc(O)no3)cn2)c1` (stereo not drawn) [Example 7, 5-(6-(2-(3-isopropoxyphenyl)-1-methylethoxy)pyridin-3-yl)isoxazol-3-ol] was 98%.

Turning to `CC(C)Oc1cccc(CC(C)Oc2ccc(-c3cc(O)no3)nc2)c1` (stereo not drawn) [Example 8, 5-(5-(2-(3-isopropoxyphenyl)-1-methylethoxy)pyridin-2-yl)isoxazol-3-ol], the activation at 10 µM was determined as 96%. The same measure, in the same setting: to `CC(C)Oc1cccc(CN(C)Cc2ccc(-c3cc(O)no3)cc2)c1` [Example 9, 5-(4-(((3-isopropoxybenzyl)(methyl)amino)methyl)phenyl)isoxazol-3-ol] belongs 100%.

For `CC(Cc1ccc(-c2cc(O)no2)cc1)Oc1ccccc1` (stereo not drawn) [Example 10, 5-(4-(2-phenoxypropyl)phenyl)isoxazol-3-ol], the activation at 10 µM was 93%. In the case of `COc1cccc(OC(C)Cc2ccc(-c3cc(O)no3)cc2)c1` (stereo not drawn) [Example 12, 5-(4-(2-(3-methoxyphenoxy)propyl)phenyl)isoxazol-3-ol], the activation at 10 µM stood at 95%. Still for that read-out and setting: to `CC(Cc1ccc(-c2cc(O)no2)cc1)Oc1cccc(C(F)(F)F)c1` (stereo not drawn) [Example 13, 5-(4-(2-(3-(trifluoromethyl)phenoxy)propyl)phenyl)isoxazol-3-ol] belongs 93%. Same read-out and setting: the value for `COc1cc(OC)cc(OC(C)Cc2ccc(-c3cc(O)no3)cc2)c1` (stereo not drawn) [Example 15, 5-(4-(2-(3,5-dimethoxyphenoxy)propyl)phenyl)isoxazol-3-ol] was 97%. Still for that read-out and setting: to `CC(C)Oc1cccc(C[C@H](C)Oc2ccc(-c3cc(O)no3)cc2)c1` [Example 21, 5-{4-[((1S)-1-methyl-2-{3-[(1-methylethyl)oxy]phenyl}ethyl)oxy]phenyl}isoxazol-3-ol] belongs 95%; to `C[C@H](Cc1cccc(OC(F)(F)F)c1)Oc1ccc(-c2cc(O)no2)cc1` [Example 23, 5-{4-[((1R)-1-methyl-2-{3-[(trifluoromethyl)oxy]phenyl}ethyl)oxy]phenyl}isoxazol-3-ol], 101%. Regarding `C[C@H](Cc1ccc(OC(F)(F)F)cc1)Oc1ccc(-c2cc(O)no2)cc1` [Example 24, 5-{4-[((1R)-1-methyl-2-{4-[(trifluoromethyl)oxy]phenyl}ethyl)oxy]phenyl}isoxazol-3-ol], the activation at 10 µM stood at 86%. The same measure, in the same setting: the value for `C[C@H](Cc1ccc(Cl)c(OC(F)(F)F)c1)Oc1ccc(-c2cc(O)no2)cc1` [Example 25, 5-{4-[((1R)-2-{4-chloro-3-[(trifluoromethyl)oxy]phenyl}-1-methylethyl)oxy]phenyl}isoxazol-3-ol] was 91%.

Regarding `CC(C)Oc1cccc(C[C@@H](C)Oc2ccc(-c3cc(O)no3)cn2)c1` [Example 26, 5-{6-[((1R)-1-methyl-2-{3-[(1-methylethyl)oxy]phenyl}ethyl)oxy]pyridin-3-yl}isoxazol-3-ol Hydrochloride], the activation at 10 µM was determined as 100%. Same read-out and setting: to `CC(C)Oc1cccc(C[C@H](C)Oc2ccc(-c3cc(O)no3)cn2)c1` [Example 27, 5-{6-[((1S)-1-methyl-2-{3-[(1-methylethyl)oxy]phenyl}ethyl)oxy]pyridin-3-yl}isoxazol-3-ol Hydrochloride] belongs 99%; to `CC(C)Oc1cccc(C[C@@H](C)Oc2ccc(-c3cc(O)no3)c(F)c2)c1` [Example 28, 5-{2-fluoro-4-[((1R)-1-methyl-2-{3-[(1-methylethyl)oxy]phenyl}ethyl)oxy]phenyl}isoxazol-3-ol], 97%; to `CC(C)Oc1cccc(C(F)COc2ccc(-c3cc(O)no3)cc2)c1` (stereo not drawn) [Example 29, 5-{4-[(2-fluoro-2-{3-[(1-methylethyl)oxy]phenyl}ethyl)oxy]phenyl}isoxazol-3-ol], 102%. Same read-out and setting: to `CCC(Cc1cccc(OC(C)C)c1)Oc1ccc(-c2cc(O)no2)cc1` (stereo not drawn) [Example 34, 5-(4-(2-(3-isopropoxyphenyl)-1-ethylethoxy)phenyl)isoxazol-3-ol] belongs 90%. The same measure, in the same setting: to `CC(C)Oc1cccc(C(F)(F)COc2ccc(-c3cc(O)no3)cc2)c1` [Example 36, 5-(4-(2,2-difluoro-2-(3-isopropoxyphenyl)ethoxy)phenyl)isoxazol-3-ol] belongs 100%; to `CCOc1cccc(CC(C)Oc2ccc(-c3cc(O)no3)c(F)c2)c1` (stereo not drawn) [Example 37, 5-{2-fluoro-4-[2-(3-ethoxyphenyl)-1-methylethoxy]phenyl}isoxazol-3-ol], 97%; to `CC(C)Oc1cccc(C(C)(C)COc2ccc(-c3cc(O)no3)c(F)c2)c1` [Example 38, 5-{2-fluoro-4-[2-(3-isopropoxyphenyl)-2-methylpropoxy]phenyl}isoxazol-3-ol], 92%.
